According to patent US20230219892A1, “FORMS AND COMPOSITIONS OF A BETA ADRENERGIC AGONIST” (Curasen Therapeutics, Inc., priority 2020, published 2023):
≈ marks a conversion by molar mass, not a printed value. Where two headings read alike, the source gives them in different places.

Assays:
[1] = Solubility testing in biorelevant media (SGF, FaSSIF, FeSSIF) and water, shaken at 37° C. for up to 24 hours; format: physicochemical; settings: for Solubility (mg/mL) 0.5 h / solubility / solubility at 0.5 h: 37° C.; for solubility / solubility at 0.5 h: 37 °C, thermodynamic from solid; for time until dissolved in each medium: shaking at 37° C., about 15 mg in 3 mL of each of the 4 media; for solubility at 0.5 h: read-out: Solubility (mg/mL) 0.5 h
Method: (§1) HPLC analysis was performed with an Agilent HPLC 1260 series instrument.
Compound 1 Form A, Compound 2 Form A and Compound 9 Form A were tested for stability in three biorelevant media and water at 37° C. for 0.5, 2 and 24 hours. About 15 mg of Compound 1 Form A, Compound 2 Form A and Compound 9 Form A were weighted into four separate vials each and to each set of vials was added 3 mL of one of the following biorelevant media: simulated gastric […] fluid (SGF), fasted state simulated intestinal fluid (FaSSIF), fed state simulated intestinal fluid (FeSSIF), and water. All samples were shaken at 200 rpm at 37° C. for up to 24 hours. […] Compound 9 Form A dissolved in each medium after about 15 minutes of shaking at 37° C. Compound 1 Form A dissolved in each medium over the course of about 2 hours of shaking at 37° C. […] The results of the solubility test are summarized below in Table 18: […]

[2] = Solid stability at 60° C. and 40° C./75%RH for 7 days (purity by HPLC, solid form); format: physicochemical; settings: for Purity @ 0 d (Area%): start of solid stability test; for Purity @ 0 d (Area%) / Purity @ 7 d (Area%) 40° C./75%RH / Purity @ 7 d (Area%) 60° C.: HPLC; for Solid form @ 7 d 40° C./75%RH / Purity @ 7 d (Area%) 40° C./75%RH: 7 d at 40° C./75%RH; for Solid form @ 7 d 60° C. / Purity @ 7 d (Area%) 60° C.: 7 d at 60° C.
Method: as §1
Solid stability of Compound 1 Form A, Compound 2 Form A and Compound 9 Form A were evaluated at 60° C. and 40° C./75%RH for 7 days. Purity was determined via HPLC. […] All tested compounds retained the same solid form after the 7-day experiment.

[3] = Blood-brain barrier crossing and accumulation in cerebral spinal fluid (statement, no method given)
[4] = target: β2 adrenergic receptor (Homo sapiens, UniProt P07550); experiment: Agonism of the β2 adrenergic receptor (statement, no method given)
Chain of β2 adrenergic receptor (P07550 whole entry): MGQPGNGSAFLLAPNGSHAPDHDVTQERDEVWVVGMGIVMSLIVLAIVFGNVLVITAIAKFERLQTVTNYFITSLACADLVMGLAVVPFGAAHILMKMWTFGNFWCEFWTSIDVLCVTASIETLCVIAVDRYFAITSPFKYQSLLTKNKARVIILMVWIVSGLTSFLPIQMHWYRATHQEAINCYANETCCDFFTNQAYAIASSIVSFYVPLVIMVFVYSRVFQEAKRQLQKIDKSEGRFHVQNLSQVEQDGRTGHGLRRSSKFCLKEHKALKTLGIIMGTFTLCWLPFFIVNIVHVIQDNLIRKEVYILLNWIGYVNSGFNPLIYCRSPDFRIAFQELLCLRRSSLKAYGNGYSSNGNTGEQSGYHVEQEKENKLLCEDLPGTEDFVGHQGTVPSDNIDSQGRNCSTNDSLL

[5] = Estimated solubility test: medium added stepwise at rt until the solid dissolved; format: physicochemical; settings: for solubility: thermodynamic from solid
Method: As all of the samples dissolved after about 2 hours, estimated solubility testing was conducted, wherein about 5 mg of Compound 1 Form A, Compound 2 Form A and Compound 9 Form A were weighed into four separate vials each and each media was added stepwise while stirring at rt until the solid dissolved.

[6] = Dynamic vapor sorption (DVS) moisture sorption/desorption; format: physicochemical; settings: for XRPD pattern after DVS testing: after DVS full cycle
Method: Moisture sorption/desorption data was collected on a DVS Intrinsic (SMS, UK). The sample was placed into a tared sample chamber and automatically weighed. The sample was dried at 40° C. until the dm/dt was less than 0.002% and cooled to 25° C. The instrument parameters were set as detailed below. Step time (min): 60 min; Sample temperature: 25° C.; Cycle: Full cycle; Adsorption: 0, 10, 20, 30, 40, 50, 60, 70, 80, 90; Desorption: 80, 70, 60, 50, 40, 30, 20, 10, 0; Save Data Rate: 5 s; Total flow rate: 200 sccm; Post experiment total flow: 200 sccm.

[7] = SGF, FaSSIF, FeSSIF and water, SGF, FaSSIF, FeSSIF and water, about 15 mg in 3 mL, read-out: solubility in each medium
[8] = FaSSIF, fassif, FaSSIF, shaken 200 rpm, 2 and 24 h, read-out: Solubility (mg/mL) 2 and 24 h
[9] = FaSSIF, fassif, FaSSIF, shaken 200 rpm
[10] = FeSSIF, fessif, FeSSIF, shaken 200 rpm, 2 and 24 h, read-out: Solubility (mg/mL) 2 and 24 h
[11] = FeSSIF, fessif, FeSSIF, shaken 200 rpm
[12] = SGF, simulated gastric fluid, SGF, shaken 200 rpm, 2 and 24 h, read-out: Solubility (mg/mL) 2 and 24 h
[13] = SGF, simulated gastric fluid, SGF, shaken 200 rpm
[14] = water, water, Water, shaken 200 rpm, 2 and 24 h, read-out: Solubility (mg/mL) 2 and 24 h
[15] = water, water, Water, shaken 200 rpm

CC(C)(C)NC[C@H](O)c1cccc(C#N)n1 [Compound 1, (S)-6-(2-(tert-butylamino)-1-hydroxyethyl)picolinonitrile]
Solubility (mg/mL) 0.5 h ([1]; FaSSIF, shaken 200 rpm, listed as Compound 1 Form A): 4.33 mg/mL (≈ 19.7 mM) | Solubility (mg/mL) 0.5 h ([1]; FeSSIF, shaken 200 rpm, listed as Compound 1 Form A): 4.41 mg/mL (≈ 20.1 mM) | Solubility (mg/mL) 0.5 h ([1]; SGF, shaken 200 rpm, listed as Compound 1 Form A): 4.76 mg/mL (≈ 21.7 mM) | solubility [1, 7]: > 5 mg/mL | Solubility (mg/mL) 0.5 h ([1]; Water, shaken 200 rpm, listed as Compound 1 Form A): 4.19 mg/mL (≈ 19.1 mM) | pH 24 h ([1]; pH of solubility sample in FaSSIF at 24 h (control 6.53), listed as Compound 1 Form A): 8.03 | pH 24 h ([1]; pH of solubility sample in FeSSIF at 24 h (control 5.01), listed as Compound 1 Form A): 5.52 | pH 24 h ([1]; pH of solubility sample in SGF at 24 h (control 1.19), listed as Compound 1 Form A): 1.20 | pH 24 h ([1]; pH of solubility sample in water at 24 h (control 5.26), listed as Compound 1 Form A): 10.35 | time until dissolved in each medium ([1]; listed as Compound 1 Form A): about 2 hours | Purity @ 0 d (Area%) ([2]; listed as Compound 1 Form A): 96.09% Area% | decrease in purity ([2]; 7 d, under both sets of conditions (60° C. and 40° C./75%RH)): ~ 0.3% | Solid form @ 7 d 40° C./75%RH [2]: unchanged | Purity @ 7 d (Area%) 40° C./75%RH ([2]; listed as Compound 1 Form A): 95.78% Area% | Solid form @ 7 d 60° C. [2]: unchanged | Purity @ 7 d (Area%) 60° C. ([2]; listed as Compound 1 Form A): 95.76% Area% | ability to cross the blood-brain barrier and accumulate in the cerebral spinal fluid [3]: unexpectedly high ability to cross the blood-brain barrier | activity at the β2 adrenergic receptor [4]: low concentration partial agonist | Solubility (mg/mL) FaSSIF ([5]; FaSSIF, listed as Compound 1 Form A): ~6.3 mg/mL (≈ 28.7 mM) | Solubility (mg/mL) FeSSIF ([5]; FeSSIF, listed as Compound 1 Form A): ~9.1 mg/mL (≈ 41.5 mM) | Solubility (mg/mL) SGF ([5]; SGF, listed as Compound 1 Form A): ~12.7 mg/mL (≈ 57.9 mM) | Solubility (mg/mL) Water ([5]; water, listed as Compound 1 Form A): ~5.0 mg/mL (≈ 22.8 mM)

CC(C)(C)NC[C@H](O)c1cccc(C#N)n1 [Compound 9]
solubility [1, 8]: > 5 mg/mL | solubility at 0.5 h [1, 9]: > 5 mg/mL | solubility [1, 10]: > 5 mg/mL | solubility at 0.5 h [1, 11]: > 5 mg/mL | solubility [1, 12]: > 5 mg/mL | solubility at 0.5 h [1, 13]: > 5 mg/mL | pH 24 h ([1]; pH of solubility sample in FaSSIF at 24 h (control 6.53), listed as Compound 9 Form A): 6.51 | pH 24 h ([1]; pH of solubility sample in FeSSIF at 24 h (control 5.01), listed as Compound 9 Form A): 5.01 | pH 24 h ([1]; pH of solubility sample in SGF at 24 h (control 1.19), listed as Compound 9 Form A): 1.18 | pH 24 h ([1]; pH of solubility sample in water at 24 h (control 5.26), listed as Compound 9 Form A): 5.68 | time until dissolved in each medium ([1]; listed as Compound 9 Form A): About 15 minutes | solubility [1, 14]: > 5 mg/mL | solubility at 0.5 h [1, 15]: > 5 mg/mL | water uptake at 80%RH ([6]; DVS, 25° C.): 1.05% | XRPD pattern after DVS testing [6]: remained unchanged | Purity @ 0 d (Area%) ([2]; listed as Compound 9 Form A): 98.62% Area% | Purity @ 7 d (Area%) 40° C./75%RH ([2]; listed as Compound 9 Form A): 98.49% Area% | Purity @ 7 d (Area%) 60° C. ([2]; listed as Compound 9 Form A): 98.62% Area% | Solubility (mg/mL) FaSSIF ([5]; FaSSIF, listed as Compound 9 Form A): >71.4 mg/mL | Solubility (mg/mL) FeSSIF ([5]; FeSSIF, listed as Compound 9 Form A): >101.4 mg/mL | Solubility (mg/mL) SGF ([5]; SGF, listed as Compound 9 Form A): >71.4 mg/mL | Solubility (mg/mL) Water ([5]; water, listed as Compound 9 Form A): >71.3 mg/mL

CC(C)(C)NC[C@H](O)c1cccc(C#N)n1.Cc1ccc(S(=O)(=O)O)cc1 [Compound 5]
water uptake at 80%RH ([6]; DVS, 25° C.): 1.25% | water uptake at 90%RH ([6]; DVS, 25° C., 90%RH): 2.77% | XRPD pattern after DVS testing [6]: remained unchanged

CC(C)(C)NC[C@H](O)c1cccc(C#N)n1.Cl [Compound 2]
solubility [1, 8]: > 5 mg/mL | solubility at 0.5 h [1, 9]: > 5 mg/mL | solubility [1, 10]: > 5 mg/mL | solubility at 0.5 h [1, 11]: > 5 mg/mL | solubility [1, 12]: > 5 mg/mL | solubility at 0.5 h [1, 13]: > 5 mg/mL | solubility [1, 7]: > 5 mg/mL | dissolution in each of the 4 media ([1]; at rt, about 15 mg in 3 mL): dissolved immediately | pH 24 h ([1]; pH of solubility sample in FaSSIF at 24 h (control 6.53)): 6.47 | pH 24 h ([1]; pH of solubility sample in FeSSIF at 24 h (control 5.01)): 5.01 | pH 24 h ([1]; pH of solubility sample in SGF at 24 h (control 1.19)): 1.11 | pH 24 h ([1]; pH of solubility sample in water at 24 h (control 5.26)): 5.24 | solubility [1, 14]: > 5 mg/mL | solubility at 0.5 h [1, 15]: > 5 mg/mL | water uptake at 80%RH ([6]; DVS, 25° C.): 0.58% | XRPD pattern after DVS testing [6]: remained unchanged | Purity @ 0 d (Area%) [2]: 99.27% Area% | Solid form @ 7 d 40° C./75%RH [2]: unchanged | Purity @ 7 d (Area%) 40° C./75%RH [2]: 99.27% Area% | Solid form @ 7 d 60° C. [2]: unchanged | Purity @ 7 d (Area%) 60° C. [2]: 99.25% Area% | solubility ([5]; FaSSIF, FaSSIF, read-out: Solubility (mg/mL) FaSSIF): > 100 mg/mL | solubility ([5]; FeSSIF, FeSSIF, read-out: Solubility (mg/mL) FeSSIF): > 100 mg/mL | solubility ([5]; SGF, simulated gastric fluid, SGF, read-out: Solubility (mg/mL) SGF): > 101 mg/mL | solubility ([5]; water, water, read-out: Solubility (mg/mL) Water): > 102 mg/mL
